Experimental data: patent publication US20240327423A1, “A SERIES OF PYRROLE DERIVATIVES AND THEIR PREPARATION METHOD AND THERAPEUTIC USE” (SHENZHEN SUNGENING BIO-MEDICAL CO., LTD, priority 2020, published 2024)
In brackets after ≈: the same amount, converted by molar mass. Where two headings read alike, the source gives them in different places.

Experiments:
[1] = Pharmacokinetic test in SD rats, single oral administration; assay type: in vivo; conditions: single oral administration 10 mg/kg, test compound mixed with F901318, plasma; for half-life: read-out: T½ (converted)
Protocol: Pharmacokinetic study is performed on SD rats receiving single oral administration of each test compound mixed with F901318 (10 mg/kg, 3 rats per group). Test compounds and F901318 are dissolved with […]+10% solutol+85% saline, vortexed for 1-2 mins and ultra-sonicated for 5-10 mins to form a colorless clear drug solution. The animals are fasted overnight before oral administration, and resumed feeding 4 hours after administration. After oral administration, pharmacokinetic samples are collected from orbital blood of SD rats at 0.083 h, 0.25 h, 0.5 h, 1 h, 2 h, 4 h, 6 h, 8 h, and 24 h, and three whole blood samples are collected at each time point in a volume of 0.2-0.3 mL. Blood samples are placed on ice immediately after collected, and the plasma is separated by centrifugation within 15 min (centrifugation conditions: 8000 rpm, 1 min, and at room temperature).
The collected plasma is stored at −20° C. prior to analysis. Transfer 20 μL of plasma sample into an 0.5 mL EP tube, add 200 μL of working internal standard solution (blank group is without internal standard, using the same volume of solvent instead), vortex and mix for 3 min centrifuge at 13500 rpm for 10 min, take 100 μL of supernatant and analyze with LC-MS/MS.

[2] = Liver microsomal stability test, mouse; assay type: in vitro ADME; conditions: Mouse liver microsomes
Protocol: (§1) • 1: Add 10 μL of working solutions of test product or reference product and 80 μL of microsomal working solution (liver microsomal protein concentration of 0.5 mg/mL) to wells of TO, T5, T10, T20, T30, T60, and NCF60, and only microsomal working solution is added to the Blank60 wells. Then the samples of Blank60, T10, T20, T30 and T60, except for TO and NCF60, are placed in a water bath set at 37° C. and incubate for approximately 10 mins; • 2: Add 300 μL of termination solution (acetonitrile solution containing 200 ng/mL tolbutamide and 200 ng/mL labetalol) to Sample TO, followed by 10 ul of NADPH regeneration system working solution; • 3: After incubation of Blank60, T5, T10, T20, T30 and T60 on incubation plates, add 10 μL of NADPH regeneration system working solution to each sample well to start the reaction, and 10 uL of 100 mM potassium phosphate buffer is add to the NCF60 sample wells; • 4: After incubation for appropriate times (e.g., 5, 10, 20, 30 and 60 mins), 300 μL of termination solution is add to each sample well of test product and reference product on Blank60, T5, T10, T20, T30, T60 and NCF60 plates, respectively, to terminate the reaction. • 5: All sample plates are shaken well and centrifuged at 4000 rpm for 20 min, take 100 μL of the supernatant of the test product or reference product, dilute in 300 μL of pure water for LC-MS/MS analysis, respectively. • 6: Data analysis, T½ and CLint(mic) (μL/min/mg) values are calculated based on the first-order elimination kinetics, and the equations of first-order elimination kinetics are: […]

[3] = system: Aspergillus fumigatus (ATCC MYA-4609/AF293/CBS 101355); test: Measurement of minimum inhibitory concentration (MIC), AF293; assay type: cell-based; conditions: CBS101355; Aspergillus fumigatus AF293, 35° C., 48 hours, RPMI1640; read-out: AF293: MIC
Protocol: (§2) New streaks are made with glycerol stock solution of the strains of Aspergillus fumigatus (ATCC MYA-4609/AF 293/CBS 101355) on Sabouraud's dextrose agar (SDA), incubate at 35° C. and a humidity of 40-70% for 72 hours. Other strains are processed as the same as AF293.
(§3) RPMI1640: one packet of RPMI1640 powder is dissolved in 1 L purified water and mixed well, add 0.165M MOPS, adjust the pH to 7.0, sterilize by filtration with 0.22 um membrane, and store at 4° C. for no more than 3 months.
(§4) Physiological saline: weigh 9 g of sodium chloride powder and dissolve in 1 L of purified water, and mixed well. Sterilize at 121° C. for 30 min, store at room temperature (RT) for no more than 1 week.
(§5) Dissolve the test compound and stock solution of one control compound with DMSO and obtain solutions at a concentration of 12.8 mg/mL
(§6) The maximum concentration of each compound is 0.8 mg/mL (e.g., 150 μL of dimethyl sulfoxide+10 uL of 12.8 mg/mL compound/control). Column 1 is filled with 40 μL of compound and columns 2 to 11 with 20 μL of dimethyl sulfoxide. Transfer 20 μL of compound from column 1 to column 2 to dilute the concentration. Repeat the above steps up to column 11 to give 2× serial dilutions.
(§7) 2 μL of the above 2× serial dilutions are injected into each hole of the corresponding test plate using a multichannel pipette.
(§8) Drop 5 ml of saline on the Aspergillus fumigatus SDA plate. The spores were carefully wiped off from the surface of the plate with an L-shaped coating rod. Then the suspension is transferred into a sterile tube. After shaking, let the tube stand for 5 to 10 minutes. Count the number of spores in the upper suspension with a hemocytometer and check the purity. Adjust the inoculum concentration to 0.2-2.5×10^4 spores/mL.
(§9) Inject 198 μL of diluted inoculum into each holes of the corresponding test plate using a multichannel pipette.
(§10) Incubate at 35° C. for 48 hours.
(§11) To facilitate scoring of the presence or absence of growth on the wall, a magnifying glass is used. The tested 96-well microplates were photographed and the optical density at 530 nm is read with an enzyme marker (Tecan Spark).

[4] = Liver microsomal stability test, human; assay type: in vitro ADME; conditions: Human liver microsomes
Protocol: as §1

[5] = system: Aspergillus flavus (ATCC MYA-1004); test: Measurement of minimum inhibitory concentration (MIC), ATCC MYA-1004; assay type: cell-based; conditions: Aspergillus flavus ATCC MYA-1004, 35° C., 48 hours
Protocol: as §2, §3, §4, §5, §6, §7, §8, §9, §10, §11

[6] = system: Aspergillus fumigatus (ATCC-204305); test: Measurement of minimum inhibitory concentration (MIC), ATCC 204305; assay type: cell-based; conditions: Aspergillus fumigatus ATCC 204305, 35° C., 48 hours; for MIC: ATCC204305
Protocol: New streaks are made with glycerol stock solution of the strains of Aspergillus [NT] MYA-4609/AF 293/CBS 101355) on Sabouraud's dextrose agar (SDA), incubate at 35° C. and a humidity of 40-70% for 72 hours. Other strains are processed as the same as AF293. RPMI1640: one packet of RPMI1640 powder is dissolved in 1 L purified water and mixed well, add 0.165M MOPS, adjust the pH to 7.0, sterilize by filtration with 0.22 um membrane, and store at 4° C. for no more than 3 months. Physiological saline: weigh 9 g of sodium chloride powder and dissolve in 1 L of purified water, and mixed well. […] Dissolve the test compound and stock solution of one control compound with DMSO and obtain solutions at a concentration of 12.8 mg/mL The maximum concentration of each compound is 0.8 mg/mL (e.g., 150 μL of dimethyl sulfoxide+10 uL of 12.8 mg/mL compound/control). […] Repeat the above steps up to column 11 to give 2× serial dilutions. 2 μL of the above 2× serial dilutions are injected into each hole of the corresponding test plate using a multichannel pipette. Drop 5 ml of saline on the Aspergillus fumigatus SDA plate. The spores were carefully wiped off from the surface of the plate with an L-shaped coating rod. Then the suspension is transferred into a sterile tube. After shaking, let the tube stand for 5 to 10 minutes. Count the number of spores in the upper suspension with a hemocytometer and check the purity. Adjust the inoculum concentration to 0.2-2.5×10^4 spores/mL. Inject 198 μL of diluted inoculum into each holes of the corresponding test plate using a multichannel pipette. Incubate at 35° C. for 48 hours. […] To facilitate scoring of the presence or absence of growth on the wall, a magnifying glass is used. The tested 96-well microplates were photographed and the optical density at 530 nm is read with an enzyme marker (Tecan Spark).

[7] = system: Aspergillus flavus (ATCC 204304); test: Measurement of minimum inhibitory concentration (MIC), ATCC 204304; assay type: cell-based; conditions: ATCC204304; Aspergillus flavus ATCC 204304, 35° C., 48 hours
Protocol: as §2, §3, §4, §5, §6, §7, §8, §9, §10, §11

[8] = system: Aspergillus fumigatus ATCCMYA-4690 (AF293); test: Survival rate experiment II of mouse bloodstream infection model with Aspergillus fumigatus; assay type: in vivo; conditions: immunosuppressed male CD-1 mouse
Protocol: Test Case 6: Survival Rate Experiment II of Mouse Bloodstream Infection Model with Aspergillus fumigatus • Animal for experiment: male CD-1 mouse, 6-8 weeks old, 10 animals per group. • Induction of immunosuppression: the day of infection is defined as day 0, and mouses are injected intraperitoneally with corresponding doses of cyclophosphamide on day −4 (150 mg/kg), day −1 (100 mg/kg), and day 2 (100 mg/kg), respectively. • Microbial pathogen: Aspergillus fumigatus ATCCMYA-4690 (AF293). • Collection conditions of inoculum: culture on SDA culture plates, incubate at 25° C. for at least 7 days, collect with PBS+0.1% Tween 20, and count microscopically; • Inoculation level, route and volume: 3.90E+05 CFU/mouse, tail vein injection, injection volume of 100 μL/mouse; • Treatment: Treatment is started 24 hours after infection, and test compounds are dissolved in PEG400 (0.3 mg/mL), […] The administrated mouses are observed for 8 hours.

[9] = SD, rat, plasma, po, 10 mg/kg, read-out: AUC
[10] = SD, rat, plasma, po, 10 mg/kg, read-out: Cmax
[11] = SD, rat, plasma, po, 10 mg/kg, read-out: Tmax
[12] = 0.5 mg/mL protein, 37° C., NADPH

Structure (SMILES)	AUC [1, 9] [ng·h/mL]	Cmax [1, 10] [ng/mL]	Tmax [1, 11] [h]	half-life ([1]; SD, rat, plasma, po, 10 mg/kg) [min]	CLint scaled [2, 12] [mL/min/kg]	half-life [2, 12] [min]	Remaining, (T = 60 min) [2] [%]	MIC [3] [µg/mL]	CLint scaled [4, 12] [mL/min/kg]	half-life [4, 12] [min]	Remaining, (T = 60 min) [4] [%]	MIC [6] [µg/mL]	ATCC 204305: MIC [6] [µg/mL]	other results
Cc1cc(-c2ccccc2F)c(C(=O)C(=O)Nc2ccc3c(c2)C[C@H]2CN(c4ncc(F)cn4)CCN32)n1C [Example 38, (S)-2-(3-(2-fluorophenyl)-1,5-dimethyl-1H-pyrrol-2-yl)-N-(2-(5-fluoropyrimidin-2-yl)-1,2,3,4,10,10a-hexahydropyrazino[1,2-a]indol-8-yl)-2-oxyacetamide]	–	–	–	–	–	–	24.5	–	–	–	25.3	–	0.008	AUC [1]: 41566.714 ng·h/mL; Cmax [1]: 3053.085 ng/mL; Tmax [1]: 1.000 h; T½ [1]: 11.202 h; CLint [2, 12]: 85.1 mL/min/kg; T1/2 [2, 12]: 29.3 min; day 7 survival rate ([8]; 3 mg/kg (bid) orally for 6 days, started 24 hours after infection): 50%; survival time of mouses ([8]; oral, bid): prolong the survival time; CLint [4, 12]: 40.7 mL/min/kg; T1/2 [4, 12]: 30.7 min
Cc1cc(-c2ccccc2F)c(C(=O)C(=O)Nc2ccc3c(c2)COCC2CN(c4ncc(F)cn4)CCN32)n1C (stereo not drawn) [Example 39, 2-(3-(2-fluorophenyl)-1,5-dimethyl-1H-pyrrol-2-yl)-N-(3-(5-fluoropyrimidin-2-yl)-1,2,3,4,4a,5-hexahydro-7H-benzo[e]pyrazine[2,1-c] [1,4]oxazolin-9-yl)-2-oxoacetamide]	–	–	–	–	–	–	–	–	–	–	–	–	0.03	–
Cc1cc(-c2ccccc2F)c(C(=O)C(=O)Nc2cnc3c(c2)OCC2CN(c4ncc(F)cn4)CCN32)n1C (stereo not drawn) [Example 40]	–	–	–	–	–	–	–	–	–	–	–	–	0.06	–

Further lines, with some results ahead:

AUC [1, 9] [ng·h/mL]	Cmax [1, 10] [ng/mL]	Tmax [1, 11] [h]	half-life ([1]; SD, rat, plasma, po, 10 mg/kg) [min]	CLint scaled [2, 12] [mL/min/kg]	half-life [2, 12] [min]	Remaining, (T = 60 min) [2] [%]	MIC [3] [µg/mL]	CLint scaled [4, 12] [mL/min/kg]	half-life [4, 12] [min]	Remaining, (T = 60 min) [4] [%]	MIC [6] [µg/mL]	Structure (SMILES)	ATCC 204305: MIC [6] [µg/mL]	other results
48300	3860	2.33	389	65.2	38.3	34.4	0.03 (≈ 0.0588 µM)	32.6	38.3	35.7	–	Cc1cc(-c2ccccc2)c(C(=O)C(=O)Nc2ccc3c(c2)CC2CN(c4ncc(F)cn4)CCN32)n1C (stereo not drawn) [Example 1, 2-(1,5-dimethyl-3-phenyl-1H-pyrrol-2-yl)-N-(2-(5-fluoropyrimidin-2-yl)-1,2,3,4,10,10a-hexahydropyrazino[1,2-a]indol-8-yl)-2-oxoacetamide]	–	–
–	–	–	–	114	21.8	14.3	0.03 (≈ 0.0551 µM)	66.4	18.8	10.5	0.016 (≈ 0.0294 µM)	Cc1cc(-c2ccccc2)c(C(=O)C(=O)Nc2cc(F)c3c(c2)OCC2CN(c4ncc(F)cn4)CCN32)n1C (stereo not drawn) [Example 4]	–	MIC [5]: 8 ng/mL (≈ 0.0147 µM); MIC [7]: 0.016 µg/mL (≈ 0.0294 µM)
12800	1520	0.833	297	–	–	–	0.008 (≈ 0.0147 µM)	–	–	–	0.016 (≈ 0.0294 µM)	Cc1cc(-c2ccccc2F)c(C(=O)C(=O)Nc2ccc3c(c2)OC[C@H]2CN(c4ncc(F)cn4)CCN32)n1C [Example 35, (R)-2-(3-(2-fluorophenyl)-1,5-dimethyl-1H-pyrrol-2-yl)-N-(3-(5-fluoropyrimidin-2-yl)-1,2,3,4,4a, 5-hexahydrobenzo [b]pyrazino[1,2-d] [1,4]oxazin-8-yl)-2-oxoacetamide]	–	–
